Results: ChEMBL document CHEMBL1201862, “PubChem BioAssay data set” (2004)
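Test compounds were applied to cells in 96-well plates for 48 hours at 5 doses. GI50 marks 50% less growth.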 Active and inactive are the calls of the source. Cut-off read from the data, not from the text of the source: active = GI50 up to about 1.1 µM and inactive = higher.

Experiments:
Test in all cases: NCI tumour cell line growth inhibition, 48 h
786-0 = system: 786-0
A549 = system: A549
ACHN = system: ACHN
CAKI-1 = system: CAKI-1
CCRF-CEM = system: CCRF-CEM
COLO 205 = system: COLO 205
DLD-1 = system: DLD-1
DMS-114 = system: DMS-114
DMS-273 = system: DMS-273
EKVX = system: EKVX
HCC 2998 = system: HCC 2998
HCT-116 = system: HCT-116
HCT-15 = system: HCT-15
HL-60 = system: HL-60
HOP-62 = system: HOP-62
HOP-92 = system: HOP-92
HT-29 = system: HT-29
IGROV-1 = system: IGROV-1
K562 = system: K562
KM-20L2 = system: KM-20L2
KM12 = system: KM12
LOX IMVI = system: LOX IMVI
LXFL 529 = system: LXFL 529
M14 = system: M14
M19-MEL = system: M19-MEL
MOLT-4 = system: MOLT-4
Malme-3M = system: Malme-3M
NCI-H226 = system: NCI-H226
NCI-H23 = system: NCI-H23
NCI-H460 = system: NCI-H460
NCI-H522 = system: NCI-H522
OVCAR-3 = system: OVCAR-3
OVCAR-4 = system: OVCAR-4
OVCAR-5 = system: OVCAR-5
OVCAR-8 = system: OVCAR-8
RPMI-8226 = system: RPMI-8226
RXF 393 = system: RXF 393
RXF 631 = system: RXF 631
SF-295 = system: SF-295
SF-539 = system: SF-539
SK-MEL-28 = system: SK-MEL-28
SK-MEL-2 = system: SK-MEL-2
SK-MEL-5 = system: SK-MEL-5
SK-OV-3 = system: SK-OV-3
SN12C = system: SN12C
SNB-19 = system: SNB-19
SNB-75 = system: SNB-75
SNB-78 = system: SNB-78
SR = system: SR
SW-620 = system: SW-620
TK-10 = system: TK-10
U-251 = system: U-251
UACC-257 = system: UACC-257
UACC-62 = system: UACC-62
XF498 = system: XF498
A498 = system: A498
SF-268 = system: SF-268
UO-31 = system: UO-31

O=C(c1ccc(Cl)cc1)c1ccc(OCCCOc2ccc(C(=O)c3ccc(Cl)cc3)cc2Cl)c(Cl)c1
GI50 (786-0): > 100 µM (inactive)
GI50 (A549): > 100 µM (inactive)
GI50 (ACHN): > 100 µM (inactive)
GI50 (CAKI-1): > 100 µM (inactive)
GI50 (CCRF-CEM): > 100 µM (inactive)
GI50 (COLO 205): > 100 µM (inactive)
GI50 (DLD-1): > 100 µM (inactive)
GI50 (DMS-114): > 100 µM (inactive)
GI50 (DMS-273): > 100 µM (inactive)
GI50 (EKVX): > 100 µM (inactive)
GI50 (HCC 2998): > 100 µM (inactive)
GI50 (HCT-116): > 100 µM (inactive)
GI50 (HCT-15): > 100 µM
GI50 (HL-60): > 100 µM (inactive)
GI50 (HOP-62): > 100 µM (inactive)
GI50 (HOP-92): > 100 µM (inactive)
GI50 (HT-29): > 100 µM (inactive)
GI50 (IGROV-1): > 100 µM (inactive)
GI50 (K562): > 100 µM (inactive)
GI50 (KM-20L2): > 100 µM (inactive)
GI50 (KM12): > 100 µM (inactive)
GI50 (LOX IMVI): > 100 µM (inactive)
GI50 (LXFL 529): > 100 µM (inactive)
GI50 (M14): > 100 µM (inactive)
GI50 (M19-MEL): > 100 µM (inactive)
GI50 (MOLT-4): > 100 µM (inactive)
GI50 (Malme-3M): > 100 µM (inactive)
GI50 (NCI-H226): > 100 µM (inactive)
GI50 (NCI-H23): > 100 µM (inactive)
GI50 (NCI-H460): > 100 µM (inactive)
GI50 (NCI-H522): > 100 µM (inactive)
GI50 (OVCAR-3): > 100 µM (inactive)
GI50 (OVCAR-4): > 100 µM (inactive)
GI50 (OVCAR-5): > 100 µM (inactive)
GI50 (OVCAR-8): > 100 µM (inactive)
GI50 (RPMI-8226): > 100 µM (inactive)
GI50 (RXF 393): > 100 µM (inactive)
GI50 (RXF 631): > 100 µM (inactive)
GI50 (SF-295): > 100 µM (inactive)
GI50 (SF-539): > 100 µM (inactive)
GI50 (SK-MEL-28): > 100 µM (inactive)
GI50 (SK-MEL-2): > 100 µM (inactive)
GI50 (SK-MEL-5): > 100 µM (inactive)
GI50 (SK-OV-3): > 100 µM (inactive)
GI50 (SN12C): > 100 µM (inactive)
GI50 (SNB-19): > 100 µM (inactive)
GI50 (SNB-75): > 100 µM (inactive)
GI50 (SNB-78): > 100 µM (inactive)
GI50 (SR): > 100 µM (inactive)
GI50 (SW-620): > 100 µM (inactive)
GI50 (TK-10): > 100 µM (inactive)
GI50 (U-251): > 100 µM (inactive)
GI50 (UACC-257): > 100 µM (inactive)
GI50 (UACC-62): > 100 µM (inactive)
GI50 (XF498): > 100 µM (inactive)

CC(=O)N(CCN)CCN
GI50 (786-0): > 10 µM (inactive)
GI50 (A498): > 10 µM (inactive)
GI50 (A549): > 10 µM (inactive)
GI50 (ACHN): > 100 µM (inactive)
GI50 (CAKI-1): > 10 µM (inactive)
GI50 (CCRF-CEM): > 10 µM (inactive)
GI50 (COLO 205): > 10 µM (inactive)
GI50 (DLD-1): > 100 µM (inactive)
GI50 (DMS-114): > 10 µM (inactive)
GI50 (DMS-273): > 10 µM (inactive)
GI50 (EKVX): > 100 µM (inactive)
GI50 (HCC 2998): > 10 µM (inactive)
GI50 (HCT-116): > 10 µM (inactive)
GI50 (HCT-15): > 100 µM
GI50 (HL-60): > 10 µM (inactive)
GI50 (HOP-62): > 10 µM (inactive)
GI50 (HOP-92): > 10 µM (inactive)
GI50 (K562): > 10 µM (inactive)
GI50 (KM-20L2): > 10 µM (inactive)
GI50 (KM12): > 10 µM (inactive)
GI50 (LOX IMVI): > 10 µM (inactive)
GI50 (LXFL 529): > 10 µM (inactive)
GI50 (M14): > 10 µM (inactive)
GI50 (M19-MEL): > 10 µM (inactive)
GI50 (MOLT-4): > 10 µM (inactive)
GI50 (NCI-H23): > 10 µM (inactive)
GI50 (NCI-H460): > 10 µM (inactive)
GI50 (NCI-H522): > 10 µM (inactive)
GI50 (OVCAR-3): > 10 µM (inactive)
GI50 (OVCAR-4): > 10 µM (inactive)
GI50 (OVCAR-8): > 10 µM (inactive)
GI50 (RPMI-8226): > 10 µM (inactive)
GI50 (RXF 393): > 10 µM (inactive)
GI50 (RXF 631): > 10 µM (inactive)
GI50 (SF-268): > 100 µM (inactive)
GI50 (SF-295): > 10 µM (inactive)
GI50 (SK-MEL-28): > 10 µM (inactive)
GI50 (SK-MEL-2): > 100 µM (inactive)
GI50 (SK-MEL-5): > 100 µM (inactive)
GI50 (SK-OV-3): > 100 µM (inactive)
GI50 (SN12C): > 10 µM (inactive)
GI50 (SNB-19): > 10 µM (inactive)
GI50 (SNB-75): > 100 µM (inactive)
GI50 (SNB-78): > 10 µM (inactive)
GI50 (SR): > 10 µM (inactive)
GI50 (SW-620): > 10 µM (inactive)
GI50 (TK-10): > 10 µM (inactive)
GI50 (U-251): > 10 µM (inactive)
GI50 (UACC-257): > 10 µM (inactive)
GI50 (UACC-62): > 100 µM (inactive)
GI50 (UO-31): > 10 µM (inactive)
GI50 (XF498): > 100 µM (inactive)
